Data from ChEMBL document CHEMBL3046948, “Synthesis and SAR investigation of natural phenylpropene-derived methoxylated cinnamaldehydes and their novel Schiff bases as potent antimicrobial and antioxidant agents” (2013).
Values after ≈ are worked out from the molar mass of the structure shown. Active and inactive are the calls of the source. No cut-off for these calls is given here.

Tests used:
Assay type in all cases: functional
[1] = system: Candida albicans; experiment: Antimicrobial activity against Candida albicans MTCC 3017 assessed as growth inhibition after 24 hr by broth microdilution method
[2] = system: Staphylococcus aureus; experiment: Antimicrobial activity against Staphylococcus aureus MTCC 3160 assessed as growth inhibition after 24 hr by broth microdilution method
[3] = system: Aspergillus niger; experiment: Antimicrobial activity against Aspergillus niger MTCC 404 assessed as growth inhibition after 5 days by broth microdilution method
[4] = system: Klebsiella pneumoniae; experiment: Antimicrobial activity against Klebsiella pneumoniae MTCC 109 assessed as growth inhibition after 24 hr by broth microdilution method
[5] = system: Escherichia coli; experiment: Antimicrobial activity against Escherichia coli MTCC 43 assessed as growth inhibition after 24 hr by broth microdilution method
[6] = system: Enterobacter cloacae; experiment: Antimicrobial activity against Enterobacter cloacae MTCC 509 assessed as growth inhibition after 24 hr by broth microdilution method
[7] = system: Aspergillus parasiticus; experiment: Antimicrobial activity against Aspergillus parasiticus MTCC 2797 assessed as growth inhibition after 5 days by broth microdilution method
[8] = system: Burkholderia cepacia; experiment: Antimicrobial activity against Burkholderia cepacia MTCC 438 assessed as growth inhibition after 24 hr by broth microdilution method
[9] = system: Pseudomonas aeruginosa; experiment: Antimicrobial activity against Pseudomonas aeruginosa MTCC 424 assessed as growth inhibition after 24 hr by broth microdilution method
[10] = system: Bacillus subtilis; experiment: Antimicrobial activity against Bacillus subtilis MTCC 121 assessed as growth inhibition after 24 hr by broth microdilution method
[11] = system: Aspergillus sydowii; experiment: Antimicrobial activity against Aspergillus sydowii MTCC 4335 assessed as growth inhibition after 5 days by broth microdilution method
[12] = system: Micrococcus luteus; experiment: Antimicrobial activity against Micrococcus luteus MTCC 2470 assessed as growth inhibition after 24 hr by broth microdilution method
[13] = system: Trichophyton rubrum; experiment: Antimicrobial activity against Trichophyton rubrum MTCC 296 assessed as growth inhibition after 5 days by broth microdilution method
[14] = system: Pichia kudriavzevii; experiment: Antimicrobial activity against Pichia kudriavzevii MTCC 231 assessed as growth inhibition after 24 hr by broth microdilution method

| Compound | MIC [1] | MIC ([2]; MTCC 3160, 24 h) | MIC [3] | MIC ([4]; MTCC 109, 24 h) | MIC ([5]; MTCC 43, 24 h) | MIC ([6]; MTCC 509, 24 h) | MIC [7] | MIC ([8]; MTCC 438, 24 h) | MIC ([9]; MTCC 424, 24 h) | MIC ([10]; MTCC 121, 24 h) | MIC [11] | MIC ([12]; MTCC 2470, 24 h) | MIC [9] | MIC [12] | MIC ([1]; MTCC 3017, 24 h) | MIC ([3]; MTCC 404, 120 h) | MIC ([7]; MTCC 2797, 120 h) | MIC ([11]; MTCC 4335, 120 h) | MIC ([13]; MTCC 296, 120 h) | MIC ([14]; MTCC 231, 24 h) | other results |
| --- | --- | --- | --- | --- | --- | --- | --- | --- | --- | --- | --- | --- | --- | --- | --- | --- | --- | --- | --- | --- | --- |
| Cc1ccc(/C=C/C=O)c([N+](=O)[O-])c1 | inactive | 10500 µM (≈ 2000 µg/mL) | inactive | 10500 µM (≈ 2000 µg/mL) | 2610 µM (≈ 499 µg/mL) | 10500 µM (≈ 2000 µg/mL) | inactive | 2610 µM (≈ 499 µg/mL) | 2610 µM (≈ 499 µg/mL) | 2610 µM (≈ 499 µg/mL) | inactive | 2610 µM (≈ 499 µg/mL) |  |  |  |  |  |  |  |  | MIC [13]: inactive; MIC [14]: inactive |
| CC(C)OC(=O)/C=C/c1ccccc1 | inactive |  | inactive |  |  |  | inactive |  |  |  | inactive |  | inactive | inactive |  |  |  |  |  |  | MIC [2]: inactive; MIC [4]: inactive; MIC [5]: inactive; MIC [6]: inactive; MIC [8]: inactive; MIC [10]: inactive; MIC [13]: inactive; MIC [14]: inactive |
| O=C(O)/C=C/c1ccccc1 [CINNAMIC ACID] |  | 3370 µM (≈ 499 µg/mL) |  | 6750 µM (≈ 1000 µg/mL) | 13500 µM (≈ 2000 µg/mL) | 6750 µM (≈ 1000 µg/mL) |  | 6750 µM (≈ 1000 µg/mL) | 13500 µM (≈ 2000 µg/mL) | 6750 µM (≈ 1000 µg/mL) |  | 6750 µM (≈ 1000 µg/mL) |  |  | 420 µM (≈ 62.2 µg/mL) | 1680 µM (≈ 249 µg/mL) | 3370 µM (≈ 499 µg/mL) | 1680 µM (≈ 249 µg/mL) | 420 µM (≈ 62.2 µg/mL) | 840 µM (≈ 124 µg/mL) |  |
| COc1ccc(C=O)cc1 [ANISALDEHYDE] |  | 1830 µM (≈ 249 µg/mL) |  | 14700 µM (≈ 2000 µg/mL) | 14700 µM (≈ 2000 µg/mL) | 14700 µM (≈ 2000 µg/mL) |  |  |  | 14700 µM (≈ 2000 µg/mL) |  |  | inactive | inactive | 3670 µM (≈ 500 µg/mL) | 7340 µM (≈ 999 µg/mL) | 1830 µM (≈ 249 µg/mL) | 1830 µM (≈ 249 µg/mL) | 920 µM (≈ 125 µg/mL) | 3670 µM (≈ 500 µg/mL) |  |
| C/C=C/c1ccc2c(c1)OCO2 [ISOSAFROLE] | inactive |  | inactive |  |  |  | inactive |  |  |  | inactive |  | inactive | inactive |  |  |  |  | 3080 µM (≈ 500 µg/mL) |  | MIC [2]: inactive; MIC [4]: inactive; MIC [5]: inactive; MIC [6]: inactive; MIC [8]: inactive; MIC [10]: inactive; MIC [14]: inactive |
| NYSTATIN | 8 µM |  | 30 µM |  |  |  | 60 µM |  |  |  | 4 µM |  |  |  |  |  |  |  |  |  | MIC [13]: 8 µM; MIC [14]: 30 µM |
| O=C/C=C/c1ccc2c(c1)OCO2 |  | 2840 µM (≈ 500 µg/mL) |  | 1420 µM (≈ 250 µg/mL) | 2840 µM (≈ 500 µg/mL) | 1420 µM (≈ 250 µg/mL) |  | 710 µM (≈ 125 µg/mL) | 350 µM (≈ 61.7 µg/mL) | 2840 µM (≈ 500 µg/mL) |  | 2840 µM (≈ 500 µg/mL) |  |  | 350 µM (≈ 61.7 µg/mL) | 1420 µM (≈ 250 µg/mL) | 710 µM (≈ 125 µg/mL) | 350 µM (≈ 61.7 µg/mL) | 350 µM (≈ 61.7 µg/mL) | 350 µM (≈ 61.7 µg/mL) |  |
| OC/C=C/c1ccccc1 [CINNAMIC ALCOHOL] |  | 14900 µM (≈ 2000 µg/mL) |  | 3720 µM (≈ 499 µg/mL) | 7450 µM (≈ 1000 µg/mL) | 7450 µM (≈ 1000 µg/mL) |  | 1860 µM (≈ 250 µg/mL) | 3720 µM (≈ 499 µg/mL) | 7450 µM (≈ 1000 µg/mL) |  | 7450 µM (≈ 1000 µg/mL) |  |  | 1860 µM (≈ 250 µg/mL) | 3720 µM (≈ 499 µg/mL) | 3720 µM (≈ 499 µg/mL) | 3720 µM (≈ 499 µg/mL) | 1860 µM (≈ 250 µg/mL) | 3720 µM (≈ 499 µg/mL) |  |
| C/C=C/c1cc(OC)c(OC)cc1OC [TRANS-ASARONE] |  |  |  |  |  | 9600 µM (≈ 2000 µg/mL) |  |  |  |  |  |  | inactive | inactive | 600 µM (≈ 125 µg/mL) | 4800 µM (≈ 1000 µg/mL) | 1200 µM (≈ 250 µg/mL) | 2400 µM (≈ 500 µg/mL) | 600 µM (≈ 125 µg/mL) | 1200 µM (≈ 250 µg/mL) | MIC [2]: inactive; MIC [4]: inactive; MIC [5]: inactive; MIC [8]: inactive; MIC [10]: inactive |
| CCCCCCCCCCCCOC(=O)/C=C/c1ccccc1 |  |  | inactive | 3160 µM (≈ 1000 µg/mL) |  |  | inactive |  |  |  | inactive |  | inactive | inactive | 790 µM (≈ 250 µg/mL) |  |  |  | 790 µM (≈ 250 µg/mL) | 390 µM (≈ 123 µg/mL) | MIC [2]: inactive; MIC [5]: inactive; MIC [6]: inactive; MIC [8]: inactive; MIC [10]: inactive |
| CC1(C)S[C@@H]2[C@H](NC(=O)[C@H](N)c3ccccc3)C(=O)N2[C@H]1C(=O)O [AMPICILLIN] |  | 10 µM (≈ 3.49 µg/mL) |  | 5700 µM (≈ 1990 µg/mL) | 80 µM (≈ 28 µg/mL) | 5700 µM (≈ 1990 µg/mL) |  | 5700 µM (≈ 1990 µg/mL) | 2800 µM (≈ 978 µg/mL) | 10 µM (≈ 3.49 µg/mL) |  | 10 µM (≈ 3.49 µg/mL) |  |  |  |  |  |  |  |  |  |
